One data set relates to SF-268. The data set can be described thus: NCI-60 one-dose screen. The format is cell-based. The following applies: Homo sapiens; SF-268, CNS Cancer panel; single dose 10^−5 M; read-out: Growth inhibition %.
The test system of a further data set is CCRF-CEM. Nature of the data set: NCI-60 one-dose screen. As to conditions: Homo sapiens, Leukemia panel, single dose 10^−5 M, read-out: Growth inhibition %. It is filed as cell-based.
A further data set has as its system IGROV1. Nature of the data set: NCI-60 one-dose screen. The format is cell-based. As to conditions: Homo sapiens, IGROV-1; IGROV1, Ovarian Cancer panel; single dose 10^−5 M; read-out: Growth inhibition %.
A further data set relates to HCT-116 cells. The data set can be described thus: Cell cycle analysis (PI, flow cytometry). It is filed as cell-based, human. The following applies: 10 µM, 24 h, PI staining. On the procedure:
To analyze cell cycle changes, cells permeated at 1 × 10^6 × cells/mL were trypsinized and diluted and then fixed in 70% ethanol at 4 °C. Cell cycle arrest in HCT-116 cells following compound exposure was accomplished using propidium iodide (Sigma-Aldrich, St. Louis, MI, USA). The markers were then assessed using a FACS-Caliburflow cytometer (Beckman Coulter, Taipei, Taiwan) and analyzed using WinMDI software. […]
Figure 3 Apoptosis induction and cell cycle effects of compounds in HCT-116 cells. (A) The apoptotic population of HCT-116 cells was analyzed using flow cytometry after treatment with 10 µM of the test compound for 24 h followed by Annexin V/propidium iodide (PI) staining. (B) After treatment with compound concentrations of 10 µM for 24 h, cells were fixed, stained with propidium iodide (PI), and analyzed for cell cycle distribution. Results are expressed as the means ± SD from three independent experiments (* p < 0.05 and ** p < 0.01 *** p < 0.001, control versus compound).

In the next data set the target is T1, human DNA Topo II (Homo sapiens, UniProt P11388).
T1 construct: purchased Topogen, Columbus, OH, USA
T1 sequence (P11388 whole entry): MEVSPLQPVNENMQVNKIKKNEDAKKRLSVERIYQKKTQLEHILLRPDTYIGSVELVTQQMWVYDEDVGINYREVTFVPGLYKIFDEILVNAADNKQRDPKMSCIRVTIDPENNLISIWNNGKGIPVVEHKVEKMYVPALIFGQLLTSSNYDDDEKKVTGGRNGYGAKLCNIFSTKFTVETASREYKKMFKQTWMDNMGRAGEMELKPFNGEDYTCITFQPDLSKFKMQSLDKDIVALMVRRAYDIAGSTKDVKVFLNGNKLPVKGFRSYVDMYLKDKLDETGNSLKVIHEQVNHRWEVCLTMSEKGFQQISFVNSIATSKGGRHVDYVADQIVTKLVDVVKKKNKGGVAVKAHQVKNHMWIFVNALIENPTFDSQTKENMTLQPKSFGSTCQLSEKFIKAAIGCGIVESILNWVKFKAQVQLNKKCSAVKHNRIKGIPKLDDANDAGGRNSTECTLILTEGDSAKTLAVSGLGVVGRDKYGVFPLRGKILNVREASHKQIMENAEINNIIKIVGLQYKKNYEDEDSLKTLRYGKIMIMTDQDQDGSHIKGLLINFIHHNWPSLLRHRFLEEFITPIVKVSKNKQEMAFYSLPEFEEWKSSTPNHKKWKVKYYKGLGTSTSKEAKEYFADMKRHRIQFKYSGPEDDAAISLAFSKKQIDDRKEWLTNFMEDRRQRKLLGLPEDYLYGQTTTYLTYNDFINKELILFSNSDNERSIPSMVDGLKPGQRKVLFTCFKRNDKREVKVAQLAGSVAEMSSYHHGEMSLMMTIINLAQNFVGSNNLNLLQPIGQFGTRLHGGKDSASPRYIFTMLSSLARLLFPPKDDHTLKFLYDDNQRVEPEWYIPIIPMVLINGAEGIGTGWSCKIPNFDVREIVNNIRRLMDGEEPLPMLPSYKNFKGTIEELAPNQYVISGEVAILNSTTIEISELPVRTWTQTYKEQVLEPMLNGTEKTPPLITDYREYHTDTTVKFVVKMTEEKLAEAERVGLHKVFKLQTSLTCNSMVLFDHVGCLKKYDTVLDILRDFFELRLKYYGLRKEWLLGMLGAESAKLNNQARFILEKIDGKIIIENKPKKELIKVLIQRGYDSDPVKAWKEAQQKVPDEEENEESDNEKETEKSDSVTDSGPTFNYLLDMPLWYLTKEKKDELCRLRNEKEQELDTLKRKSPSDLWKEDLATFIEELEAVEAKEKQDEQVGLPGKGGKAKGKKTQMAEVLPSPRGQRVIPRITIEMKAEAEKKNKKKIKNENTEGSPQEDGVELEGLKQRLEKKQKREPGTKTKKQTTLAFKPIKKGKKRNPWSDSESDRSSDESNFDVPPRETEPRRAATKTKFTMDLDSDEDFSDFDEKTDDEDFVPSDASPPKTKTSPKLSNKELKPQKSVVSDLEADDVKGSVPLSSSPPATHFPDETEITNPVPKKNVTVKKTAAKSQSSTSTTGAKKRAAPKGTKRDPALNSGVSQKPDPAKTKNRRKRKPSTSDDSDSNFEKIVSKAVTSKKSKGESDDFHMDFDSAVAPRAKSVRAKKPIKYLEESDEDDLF
The data set can be described thus: Topo II-mediated relaxation of supercoiled pHOT1 plasmid DNA. The format is biochemical. The following applies: for concentration at which Topo II inhibition (increase of supercoiled DNA) is shown: cell-free relaxation assay, gel; for DNA band pattern in Topo II relaxation assay: at 1 and 5 µM doses, similar to doxorubicin. As for the experimental part: Consequently, the effects of the synthesized compounds on Topo II activity were evaluated with a cell-free assay using a purified human DNA Topo II-protein-mediated relaxation of the negatively supercoiled pHOT1 plasmid DNA [40]. […] Two Topo II inhibitors (doxorubicin and etoposide) were used as positive controls.
The reaction was terminated by adding 2 μL of 10% SDS, followed by 2.5 μL of proteinase K (50 μg/mL) to digest the bound protein. The system was incubated at 37 °C for 15 min. The DNA product was finally analyzed using electrophoresis on a vertical 1.5% agarose gel at 2 volts/cm in 1 × TAE buffer and photographed using the Eagle Eye II system (Stratagene, La Jolla, CA, USA).
Figure 2 Effects of compounds on topoisomerase II activity. Effects on Topo II-mediated relaxation of supercoiled pHOT1 plasmid DNA in a cell-free system. Positive control: etoposide (10 µM); doxorubicin (5 µM) used as Topo II poison (induction of linear DNA); DNA relaxation: plasmid DNA + topo IIα + solvent control. Nick, nicked DNA; Sc, supercoiled DNA; Lin, linear DNA.

Results on 20 compounds are retold here after publication PMC9866191, “Novel 9-Benzylaminoacridine Derivatives as Dual Inhibitors of Phosphodiesterase 5 and Topoisomerase II for the Treatment of Colon Cancer” (Molecules, 2023).

In turn, `COc1ccc(CNc2c3ccccc3nc3ccccc23)cc1F` [Compound 19, Acridin-9-yl-(3-fluoro-4-methoxybenzyl)-amine] returned a melting point of 145 to 147 °C. In addition, the inhibition at 10 µM in the data set on SF-268 was 50.9%. Moreover, in the data set with CCRF-CEM, the inhibition at 10 µM was 70.4%. For the same compound, in the data set on IGROV1, the inhibition at 10 µM stood at 84.2%.

On to `COc1cccc(CNc2c3ccccc3nc3ccccc23)c1OC` [Compound 16, Acridin-9-yl-(2,3-dimethoxybenzyl)-amine], for which the melting point lay within 175 to 177 °C. For the same compound, in the data set with SF-268, the inhibition at 10 µM is 38.3%. In addition, the inhibition at 10 µM in the data set on CCRF-CEM is 60.5%. In the data set on IGROV1, the inhibition at 10 µM is 76.8%.

As to `COc1ccc(CNc2c3ccccc3nc3ccccc23)cc1` [Compound 7, Acridin-9-yl-(4-methoxybenzyl)-amine], the melting point is 116 to 118 °C. Also, the inhibition at 10 µM in the data set on SF-268 came to 36.6%. For the same compound, the inhibition at 10 µM in the data set on CCRF-CEM was 61%. Besides, the inhibition at 10 µM with IGROV1 turned out to be 72.8%.

`Fc1ccc(CNc2c3ccccc3nc3ccccc23)cc1` [Compound 10, Acridin-9-yl-(4-fluorobenzyl)-amine]: the inhibition at 10 µM was found to be 46.8% in the data set with SF-268, 74% with CCRF-CEM and 78.1% in the data set with IGROV1. The “effect on cell cycle” value with HCT-116 cells was “increased the number of cells in the S phase and G2/M phase”.

With `Clc1cccc(CNc2c3ccccc3nc3ccccc23)c1` [Compound 12, Acridin-9-yl-(3-chlorobenzyl)-amine], the figures for the inhibition at 10 µM with SF-268, in the data set on CCRF-CEM and with IGROV1 were 39.4%, 81.9% and 83.5%, respectively. Further, at human DNA Topo II, the “concentration at which Topo II inhibition (increase of supercoiled DNA) is shown” value is 0.2 µM. Also, in the data set with HCT-116 cells, the “effect on cell cycle” value is reported as “cell cycle arrest in the G2/M phase”.

For `Fc1ccccc1CNc1c2ccccc2nc2ccccc12` [Compound 8, Acridin-9-yl-(2-fluorobenzyl)-amine], the inhibition at 10 µM is 20.1% with SF-268, 54% in the data set on CCRF-CEM and 63.4% in the data set with IGROV1. Further, the “DNA band pattern in Topo II relaxation assay” value (shortened to “DNA band pattern”) on human DNA Topo II was “larger base pair band than nicked DNA”. Moreover, in the data set with HCT-116 cells, the “effect on cell cycle” value is “cell cycle arrest in the G2/M phase”.

In turn, `Clc1ccc(CNc2c3ccccc3nc3ccccc23)cc1` [Compound 13, Acridin-9-yl-(4-chlorobenzyl)-amine] registered a melting point of 145 to 147 °C. Besides, in the data set on SF-268, the inhibition at 10 µM is 32.1%. Further, the inhibition at 10 µM in the data set on CCRF-CEM amounted to 69.8%. For the same compound, the inhibition at 10 µM with IGROV1 stood at 68.3%. The “effect on cell cycle” value in the data set with HCT-116 cells was “cell cycle arrest in the G2/M phase”.

For the compound `Cc1ccc(CNc2c3ccccc3nc3ccccc23)cc1` [Compound 4, Acridin-9-yl-(4-methylbenzyl)-amine], the figures for the inhibition at 10 µM in the data set with SF-268, in the data set on CCRF-CEM and in the data set with IGROV1 were 48.1%, 79.1% and 80.6%, respectively. The “effect on cell cycle” value in the data set with HCT-116 cells was “increased the number of cells in the S phase and G2/M phase”.

For `Clc1ccccc1CNc1c2ccccc2nc2ccccc12` [Compound 11, Acridin-9-yl-(2-chlorobenzyl)-amine], the inhibition at 10 µM with SF-268 was 53.4%; in the data set on CCRF-CEM, 89.3%; in the data set with IGROV1, 82.2%. The “DNA band pattern” value on human DNA Topo II is recorded as “larger base pair band than nicked DNA”. Besides, on human DNA Topo II, the “concentration at which Topo II inhibition (increase of supercoiled DNA) is shown” value came out at 0.04 µM. Moreover, the “effect on cell cycle” value with HCT-116 cells was “cell cycle arrest in the G2/M phase”.

As to `Cc1cccc(CNc2c3ccccc3nc3ccccc23)c1` [Compound 3, Acridin-9-yl-(3-methylbenzyl)-amine], the inhibition at 10 µM in the data set on SF-268 came to 48%; with CCRF-CEM it was 85.2%; in the data set on IGROV1, 80.5%. In addition, the “effect on cell cycle” value in the data set on HCT-116 cells is listed as “cell cycle arrest in the G2/M phase”.

Turning to `c1ccc(CNc2c3ccccc3nc3ccccc23)cc1` [Compound 1, Acridin-9-yl-benzyl-amine], the values for the inhibition at 10 µM in the data set on SF-268, in the data set on CCRF-CEM and in the data set with IGROV1 were 37.4%, 61% and 70.2%, respectively. For the same compound, in the data set with HCT-116 cells, the “effect on cell cycle” value is “arrested the cell cycle in the S phase”.

Compound `COc1ccc(CNc2c3ccccc3nc3ccccc23)c(OC)c1` [Compound 17, Acridin-9-yl-(2,4-dimethoxybenzyl)-amine] registered a melting point of 170 to 172 °C. Further, in the data set with SF-268, the inhibition at 10 µM stood at 34.3%. Further, the inhibition at 10 µM in the data set on CCRF-CEM was 44.6%. In the data set on IGROV1, the inhibition at 10 µM worked out at 77.5%.

For the compound `Cc1ccccc1CNc1c2ccccc2nc2ccccc12` [Compound 2, Acridin-9-yl-(2-methylbenzyl)-amine], the inhibition at 10 µM in the data set on SF-268 was 57.1%; in the data set with CCRF-CEM, 82.4%; in the data set on IGROV1 it was 85.2%. Also, in the data set with HCT-116 cells, the “effect on cell cycle” value was “cell cycle arrest in the G2/M phase”.

Turning to `COc1cccc(CNc2c3ccccc3nc3ccccc23)c1` [Compound 6, Acridin-9-yl-(3-methoxybenzyl)-amine], the melting point was 107 to 109 °C. In the data set with SF-268, the inhibition at 10 µM was 28.8%. Besides, the inhibition at 10 µM with CCRF-CEM was 69.8%. Besides, in the data set on IGROV1, the inhibition at 10 µM was found to be 71.7%.

`COc1ccc2nc3ccccc3c(NCc3ccc(C)cc3)c2c1` [Compound 26, (2-Methoxyacridin-9-yl)-(4-methylbenzyl)-amine] yielded a melting point of 131 to 133 °C. For the same compound, the inhibition at 10 µM with SF-268 was determined as 51.6%. Moreover, the inhibition at 10 µM with CCRF-CEM is 92.9%. Further, the inhibition at 10 µM in the data set with IGROV1 amounted to 82.8%.

`Fc1cccc(CNc2c3ccccc3nc3ccccc23)c1` [Compound 9, Acridin-9-yl-(3-fluorobenzyl)-amine]: the inhibition at 10 µM with SF-268 is 37.9%; in the data set with CCRF-CEM, 53.7%; in the data set on IGROV1, 74.4%. On human DNA Topo II, the “DNA band pattern” value is reported as “larger base pair band than nicked DNA”. Besides, the “effect on cell cycle” value in the data set on HCT-116 cells was “cell cycle arrest in the G2/M phase”.

Consider `COc1ccccc1CNc1c2ccccc2nc2ccccc12` [Compound 5, Acridin-9-yl-(2-methoxybenzyl)-amine], for which the inhibition at 10 µM with SF-268 amounted to 34.9%; in the data set on CCRF-CEM, 62.5%; with IGROV1 it was 73.7%. Further, in the data set with HCT-116 cells, the “effect on cell cycle” value is “does not affect the cell cycle”.

Regarding `COc1ccc(CNc2c3ccccc3nc3ccc(OC)cc23)cc1` [Compound 27, (2-Methoxyacridin-9-yl)-(4-methoxybenzyl)-amine], the melting point fell in the range of 168 to 170 °C. In the data set with SF-268, the inhibition at 10 µM came to 59.8%. Moreover, the inhibition at 10 µM in the data set on CCRF-CEM was 80.6%. Further, the inhibition at 10 µM with IGROV1 amounted to 88.8%.

In turn, `COc1ccc2nc3ccccc3c(NCc3ccc(Cl)cc3)c2c1` [Compound 29, (4-Chlorobenzyl)-(2-methoxyacridin-9-yl)-amine] gave a melting point of 178 to 180 °C. The inhibition at 10 µM in the data set with SF-268 stood at 46.5%. Also, in the data set with CCRF-CEM, the inhibition at 10 µM turned out to be 91.6%. Moreover, the inhibition at 10 µM in the data set with IGROV1 stood at 83.7%.

For the compound `c1ccc(CCNc2c3ccccc3nc3ccccc23)cc1` [Compound 23, Acridin-9-yl-phenethyl-amine], the melting point lay within 151 to 153 °C. Further, the inhibition at 10 µM with SF-268 is 33.5%. For the same compound, the inhibition at 10 µM with CCRF-CEM came out at 46.7%. Moreover, in the data set with IGROV1, the inhibition at 10 µM turned out to be 72%.
